Laboratory results reported in US9334279B2, “Hepatitis C virus inhibitors” (BRISTOL-MYERS SQUIBB COMPANY, priority 2012, dated 2016).
Like-named read-outs stand apart in the source and are kept apart here.

Assays:
HCV GT1a(H77) replicon = test: HCV replicon luciferase reporter assay, genotype 1a; format: cell-based, HCV genotype 1a; conditions: Hepatitis C virus, 72 h, HUH-7 cells, Renilla luciferase, 3 days incubation
Method in brief: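 Huh-7 cells stably carried a GT1a(H77) Renilla luciferase replicon with NS3 P1496L and NS5A S2204I adaptive mutations. Luminescence was read after 2 h with 7.5 μM EnduRen, and EC50 came from a four-parameter logistic fit; CC50 came from multiplexed Cell Titer-Blue (8 h).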

HCV GT1b(Con1) replicon = test: HCV replicon luciferase reporter assay, genotype 1b; format: cell-based, HCV genotype 1b; conditions: Hepatitis C virus, 72 h, HUH-7 cells, Renilla luciferase, 3 days incubation
Method in brief: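 HUH-7 cells stably carrying a Con1 GT1b replicon with Renilla luciferase and Ser1179Ile adaptive mutation; 3.0×10^3 cells/well, DMEM 4% FCS, 0.5% DMSO, twenty-point 3-fold titration, 3 days 37 °C. Luminescence 2 h after 7.5 μM EnduRen; EC50 by four-parameter logistic fit. CC50 from multiplexed Cell Titer-Blue fluorescence (8 h).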

Compound | EC50 (HCV GT1a(H77) replicon; read-out: LE_1a (EC50, range)) | EC50 (HCV GT1b(Con1) replicon; read-out: LE_1b (EC50, range)) | EC50 (HCV GT1a(H77) replicon; read-out: LE_1a (EC50)) | EC50 (HCV GT1b(Con1) replicon; read-out: LE_1b (EC50))
CC(C)Oc1ccc(-c2cc(Cl)cc(O[C@@H]3C[C@H]4C(=O)N[C@]5(C(=O)NS(=O)(=O)C6(C)CC6)C[C@H]5/C=C\CC[C@H](C)C[C@@H](C)[C@H](NC(=O)OC(C)(C)C(F)(F)F)C(=O)N4C3)n2)cc1 [Compound 1028, 1,1,1-trifluoro-2-methylpropan-2-yl ((2R,6S,7R,9S,13aS,14aR,16aS,Z)-2-((4-chloro-6-(4-isopropoxyphenyl)pyridin-2-yl)oxy)-7,9-dimethyl-14a-(((1-methylcyclopropyl)sulfonyl)carbamoyl)-5,16-dioxo-1,2,3,5,6,7,8,9,10,11,13a,14,14a,15,16,16a-hexadecahydrocyclopropa[e]pyrrolo[1,2-a][1,4]diazacyclopentadecin-6-yl)carbamate] | 35 to 359 nM | 35 to 359 nM |  | 
CC[C@@H]1C[C@H](C)CC/C=C\[C@@H]2C[C@@]2(C(=O)NS(=O)(=O)C2CC2)NC(=O)[C@@H]2C[C@@H](Oc3cc(-c4ccc(OC(C)C)cc4)nc(-c4nccs4)c3)CN2C(=O)[C@H]1NC(=O)O[C@@H]1C[C@@H]2C[C@@H]2C1 [Compound 1057, (1R,3r,5S)-bicyclo[3.1.0]hexan-3-yl ((2R,6S,7R,9R,13aS,14aR,16aS,Z)-14a-((cyclopropylsulfonyl)carbamoyl)-7-ethyl-2-((2-(4-isopropoxyphenyl)-6-(thiazol-2-yl)pyridin-4-yl)oxy)-9-methyl-5,16-dioxo-1,2,3,5,6,7,8,9,10,11,13a,14,14a,15,16,16a-hexadecahydrocyclopropa[e]pyrrolo[1,2-a][1,4]diazacyclopentadecin-6-yl)carbamate] | 1.01 to 5 nM | 1.01 to 5 nM |  | 
CC(C)Oc1ccc(-c2cc(O[C@@H]3C[C@H]4C(=O)N[C@]5(C(=O)NS(=O)(=O)C6(C)CC6)C[C@H]5/C=C\CC[C@@H](C)C[C@@H](C)[C@H](NC(=O)OC(C)(C)C(F)(F)F)C(=O)N4C3)cc(-c3cccnc3)n2)cc1 [Compound 1005, 1,1,1-trifluoro-2-methylpropan-2-yl ((2R,6S,7R,9R,13aS,14aR,16aS,Z)-2-((6-(4-isopropoxyphenyl)-[2,3′-bipyridin]-4-yl)oxy)-7,9-dimethyl-14a-(((1-methylcyclopropyl)sulfonyl)carbamoyl)-5,16-dioxo-1,2,3,5,6,7,8,9,10,11,13a,14,14a,15,16,16a-hexadecahydrocyclopropa[e]pyrrolo[1,2-a][1,4]diazacyclopentadecin-6-yl)carbamate] | 1.01 to 5 nM | 1.01 to 5 nM | 1.48 nM | 1.71 nM
C[C@@H]1CC/C=C\[C@@H]2C[C@@]2(C(=O)NS(=O)(=O)C2(C)CC2)NC(=O)[C@@H]2C[C@@H](Oc3cc(-c4cccnc4)nc(-c4nccs4)c3)CN2C(=O)[C@@H](NC(=O)OC(C)(C)C(F)(F)F)[C@H](C)C1 [Compound 1050, 1,1,1-trifluoro-2-methylpropan-2-yl ((2R,6S,7R,9R,13aS,14aR,16aS,Z)-7,9-dimethyl-14a-(((1-methylcyclopropyl)sulfonyl)carbamoyl)-5,16-dioxo-2-((6-(thiazol-2-yl)-[2,3′-bipyridin]-4-yl)oxy)-1,2,3,5,6,7,8,9,10,11,13a,14,14a,15,16,16a-hexadecahydrocyclopropa[e]pyrrolo[1,2-a][1,4]diazacyclopentadecin-6-yl)carbamate] | 1.01 to 5 nM | 0.1 to 0.5 nM |  | 
CC(C)Oc1ccc(-c2cc(Cl)cc(O[C@@H]3C[C@H]4C(=O)N[C@]5(C(=O)NS(=O)(=O)C6(C)CC6)C[C@H]5/C=C\CC[C@@H](C)C[C@@H](C)[C@H](NC(=O)OC(C)(C)C(F)(F)F)C(=O)N4C3)n2)cc1 [Compound 1027, 1,1,1-trifluoro-2-methylpropan-2-yl ((2R,6S,7R,9R,13aS,14aR,16aS,Z)-2-((4-chloro-6-(4-isopropoxyphenyl)pyridin-2-yl)oxy)-7,9-dimethyl-14a-(((1-methylcyclopropyl)sulfonyl)carbamoyl)-5,16-dioxo-1,2,3,5,6,7,8,9,10,11,13a,14,14a,15,16,16a-hexadecahydrocyclopropa[e]pyrrolo[1,2-a][1,4]diazacyclopentadecin-6-yl)carbamate] | 1.01 to 5 nM | 1.01 to 5 nM |  | 
CC(C)Oc1ccc(-c2cc(Cl)cc(O[C@@H]3C[C@H]4C(=O)N[C@]5(C(=O)NS(=O)(=O)C6(C)CC6)C[C@H]5/C=C\CC[C@@H](C)C[C@@H](C)[C@H](NC(=O)OC(C)(C)C)C(=O)N4C3)n2)cc1 [Compound 1029, tert-butyl ((2R,6S,7R,9R,13aS,14aR,16aS,Z)-2-((4-chloro-6-(4-isopropoxyphenyl)pyridin-2-yl)oxy)-7,9-dimethyl-14a-(((1-methylcyclopropyl)sulfonyl)carbamoyl)-5,16-dioxo-1,2,3,5,6,7,8,9,10,11,13a,14,14a,15,16,16a-hexadecahydrocyclopropa[e]pyrrolo[1,2-a][1,4]diazacyclopentadecin-6-yl)carbamate] | 1.01 to 5 nM | 1.01 to 5 nM |  | 
Cc1ccc(-c2cc(O[C@@H]3C[C@H]4C(=O)N[C@]5(C(=O)NS(=O)(=O)C6(C)CC6)C[C@H]5/C=C\CC[C@@H](C)C[C@@H](C)[C@H](NC(=O)OC(C)(C)C(F)(F)F)C(=O)N4C3)cc(-c3nccs3)n2)cc1 [Compound 1059, 1,1,1-trifluoro-2-methylpropan-2-yl ((2R,6S,7R,9R,13aS,14aR,16aS,Z)-7,9-dimethyl-14a-(((1-methylcyclopropyl)sulfonyl)carbamoyl)-5,16-dioxo-2-((2-(thiazol-2-yl)-6-(p-tolyl)pyridin-4-yl)oxy)-1,2,3,5,6,7,8,9,10,11,13a,14,14a,15,16,16a-hexadecahydrocyclopropa[e]pyrrolo[1,2-a][1,4]diazacyclopentadecin-6-yl)carbamate] | 0.51 to 1 nM | 0.51 to 1 nM |  | 
CC[C@@H]1O[C@H](C)CC/C=C\[C@@H]2C[C@@]2(C(=O)NS(=O)(=O)C2(C)CC2)NC(=O)[C@@H]2C[C@@H](Oc3cc(-c4ccc(C(F)(F)F)cc4)nc(-c4nccs4)c3)CN2C(=O)[C@H]1NC(=O)OC1(C(F)(F)F)CCCOC1 (stereo partly drawn) [Compound 1040, 3-(trifluoromethyl)tetrahydro-2H-pyran-3-yl ((2R,6S,7S,9R,13aS,14aR,16aS,Z)-7-ethyl-9-methyl-14a-(((1-methylcyclopropyl)sulfonyl)carbamoyl)-5,16-dioxo-2-((2-(thiazol-2-yl)-6-(4-(trifluoromethyl)phenyl)pyridin-4-yl)oxy)-2,3,5,6,7,9,10,11,13a,14,14a,15,16,16a-tetradecahydro-1H-cyclopropa[i]pyrrolo[1,2-e][1,5,8]oxadiazacyclopentadecin-6-yl)carbamate] | 0.51 to 1 nM | 0.1 to 0.5 nM |  | 
CC(C)Oc1ccc(-c2cc(O[C@@H]3C[C@H]4C(=O)N[C@]5(C(=O)NS(=O)(=O)C6(C)CC6)C[C@H]5/C=C\CC[C@@H](C)C[C@@H](C)[C@H](NC(=O)OC(C)(C)C(F)(F)F)C(=O)N4C3)cc(-c3ncccn3)n2)cc1 [Compound 1019, 1,1,1-trifluoro-2-methylpropan-2-yl ((2R,6S,7R,9R,13aS,14aR,16aS,Z)-2-((2-(4-isopropoxyphenyl)-6-(pyrimidin-2-yl)pyridin-4-yl)oxy)-7,9-dimethyl-14a-(((1-methylcyclopropyl)sulfonyl)carbamoyl)-5,16-dioxo-1,2,3,5,6,7,8,9,10,11,13a,14,14a,15,16,16a-hexadecahydrocyclopropa[e]pyrrolo[1,2-a][1,4]diazacyclopentadecin-6-yl)carbamate] | 1.01 to 5 nM | 1.01 to 5 nM |  | 
CC(C)Oc1ccc(-c2cc(O[C@@H]3C[C@H]4C(=O)N[C@]5(C(=O)NS(=O)(=O)C6(C)CC6)C[C@H]5/C=C\CC[C@@H](C)C[C@@H](C)[C@H](NC(=O)OC5(C(F)(F)F)CCCOC5)C(=O)N4C3)cc(-c3nccs3)n2)cc1 (stereo partly drawn) [Compound 1041, 3-(trifluoromethyl)tetrahydro-2H-pyran-3-yl ((2R,6S,7R,9R,13aS,14aR,16aS,Z)-2-((2-(4-isopropoxyphenyl)-6-(thiazol-2-yl)pyridin-4-yl)oxy)-7,9-dimethyl-14a-(((1-methylcyclopropyl)sulfonyl)carbamoyl)-5,16-dioxo-1,2,3,5,6,7,8,9,10,11,13a,14,14a,15,16,16a-hexadecahydrocyclopropa[e]pyrrolo[1,2-a][1,4]diazacyclopentadecin-6-yl)carbamate] | 0.51 to 1 nM | 0.51 to 1 nM |  | 
CC(C)Oc1ccc(-c2cc(O[C@@H]3C[C@H]4C(=O)N[C@]5(C(=O)NS(=O)(=O)C6(C)CC6)C[C@H]5/C=C\CC[C@@H](C)C[C@@H](C)[C@H](NC(=O)OC(C)(C)C(F)(F)F)C(=O)N4C3)cc(-n3cccn3)n2)cc1 [Compound 1013, 1,1,1-trifluoro-2-methylpropan-2-yl ((2R,6S,7R,9R,13aS,14aR,16aS,Z)-2-((2-(4-isopropoxyphenyl)-6-(1H-pyrazol-1-yl)pyridin-4-yl)oxy)-7,9-dimethyl-14a-(((1-methylcyclopropyl)sulfonyl)carbamoyl)-5,16-dioxo-1,2,3,5,6,7,8,9,10,11,13a,14,14a,15,16,16a-hexadecahydrocyclopropa[e]pyrrolo[1,2-a][1,4]diazacyclopentadecin-6-yl)carbamate] | 1.01 to 5 nM | 1.01 to 5 nM |  | 
